Here are results for seven molecules from patent publication US20170327536A1, “NEUROTOXIC TARGET FOR AMYLOSPHEROID, METHOD AND MATERIAL FOR REDUCING THE NEUROTOXICITY OF AMYLOSPHEROID, AND USE THEREOF” (TAO Health Life Pharma Co., Ltd., priority 2011, published 2017).

The target in experiment [1] is ASPD (Homo sapiens, UniProt P05067). As to the kind of experiment: Surface plasmon resonance (SPR), biotinylated AAT peptide on chip, ASPD as ligand. The experiment is classed as binding. The following applies: peptide solid phase on chip. An excerpt: Biotin was bound to each C-terminal side of the above-mentioned AAT peptides 01 to […] and made into a solid phase on a chip, and a dissociation constant was obtained by surface plasmon resonance (SPR) using ASPD as a ligand.
Sequence of ASPD (P05067 672-713 limits assumed): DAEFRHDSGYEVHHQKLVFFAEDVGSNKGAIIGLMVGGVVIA
On the technique in general: Surface plasmon resonance follows binding to a sensor surface in real time, without labels.

The target of experiment [2] is T1, 105 kDa band (Na+/K+-ATPase α3) (Rattus norvegicus, UniProt P06687).
T1 construct: endogenous in cells; host or cells: rat hippocampus-derived primary cultured neurons (mature)
As to the kind of experiment: Far-western blotting of cell extracts. It counts as binding. As to conditions: extracts of neurons and HEK293 cells; detection with haASD1 (ASPD) or 6E10 (Aβ monomer). The procedure:
Extracts were prepared with RadioImmunoPrecipitation Assay (RIPA) respectively from the rat hippocampus-derived primary cultured neurons (number of culture days shown in FIG. 4) and the HEK293 cells, and protein amounts of the extracts were determined. Then, predetermined amounts of the extracts were subjected to electrophoresis with SDS-PAGE and transcribed to a nitrocellulose membrane, and reacted with native ASPD or an Aβ monomer for a predetermined period of time. The binding of the native ASPD was detected with anti-ASPD antibodies haASD1, and the binding of the Aβ monomer was detected with 6E10 that was commercially available anti-Aβ monomer antibodies (far-western blotting).
Thus, the synthetic ASPD is considered to be equivalent to the native ASPD, and after that, analysis was carried out using the synthetic ASPD.

Experiment [3] relates to mature rat hippocampus-derived primary cultured neurons. The experiment in a line: Inhibition effect of AAT peptides on ASPD apoptotic activity (neutralization). It counts as cell-based. As to conditions: 4 μM synthetic ASPD, 24 hours; for inhibition effect on ASPD apoptotic activity compared with AAT01: 0.14 μM peptide, FIG. 19. Here is the method:
Based on the fact that anti-ASPD antibodies bind to ASPD to inhibit interaction between ASPD and NAKα3 that is a target molecule to suppress death of neurons, a peptide having similar effect was searched. For this purpose, ASPD immobilized to a microtiter plate was screened through use of (commercially available) phage display library in which a library of random 12 amino acids was expressed on a virus surface, and a converged sequence was analyzed. […] A peptide having neutralization activity was named as an Anti-AD toxicity (AAT) peptide.
The apoptotic activity was measured 24 hours later and compared with that of a control to which the AAT peptide has not been administered, whereby the inhibition activity was calculated.

Regarding `CC(C)C[C@H](NC(=O)[C@H](CC(N)=O)NC(=O)[C@H](Cc1ccc(O)cc1)NC(=O)[C@H](Cc1c[nH]c2ccccc12)NC(=O)[C@H](CC(N)=O)NC(=O)[C@H](Cc1ccccc1)NC(=O)[C@@H](N)Cc1c[nH]cn1)C(=O)N[C@@H](Cc1c[nH]c2ccccc12)C(=O)N[C@@H](CCCNC(=N)N)C(=O)N[C@H](C(=O)N[C@@H](CCC(N)=O)C(=O)N[C@@H](Cc1ccc(O)cc1)C(=O)N[C@@H](CCCCNC(=O)CCCC[C@@H]1SC[C@@H]2NC(=O)N[C@@H]21)C(N)=O)C(C)C` [C-terminal biotinylated AAT01], in experiment [1], the ka is 7.64 × 10^3 and the kd is recorded as 4.41 × 10^-4.

With `CC(C)C[C@H](NC(=O)[C@@H](N)Cc1c[nH]cn1)C(=O)N[C@@H](CC(N)=O)C(=O)N[C@@H](Cc1c[nH]c2ccccc12)C(=O)N[C@@H](Cc1c[nH]c2ccccc12)C(=O)N[C@@H](Cc1c[nH]cn1)C(=O)N[C@@H](CO)C(=O)N[C@@H](Cc1c[nH]c2ccccc12)C(=O)N[C@@H](Cc1ccc(O)cc1)C(=O)N1CCC[C@H]1C(=O)N[C@@H](C)C(=O)N[C@@H](CCCNC(=N)N)C(=O)N[C@@H](CCCCNC(=O)CCCC[C@@H]1SC[C@@H]2NC(=O)N[C@@H]21)C(N)=O` [C-terminal biotinylated AAT02], in experiment [1], the ka is 5.60 × 10^3 and the kd is 4.62 × 10^-4.

Regarding `CC(C)C[C@H](NC(=O)[C@H](Cc1c[nH]c2ccccc12)NC(=O)[C@H](CC(N)=O)NC(=O)[C@H](CC(C)C)NC(=O)[C@@H](N)Cc1c[nH]cn1)C(=O)N[C@@H](CO)C(=O)N[C@@H](Cc1c[nH]c2ccccc12)C(=O)N[C@@H](Cc1ccccc1)C(=O)N1CCC[C@H]1C(=O)N[C@@H](CO)C(=O)N[C@@H](CCCNC(=N)N)C(=O)N[C@@H](Cc1c[nH]cn1)C(=O)N[C@@H](CCCCNC(=O)CCCC[C@@H]1SC[C@@H]2NC(=O)N[C@@H]21)C(N)=O` [C-terminal biotinylated AAT03], in experiment [1], the ka is on record as 4.96 × 10^3 and the kd is 4.39 × 10^-4.

Take “Aβ monomer: peptide cleaved from amyloid precursor protein (APP) with β- and γ-secretase”: the “binding to 105 kDa band in far-western blotting” value in experiment [2] is given as “did not bind to the band”.

“HFNW (ASPD-interacting motif/peptide) [AAT06]”: in experiment [3] (2.8 μM peptide, FIG. 20), the “inhibition effect on ASPD apoptotic activity compared with AAT04” value is “equal to or higher than that of the AAT04”.

For the molecule “HFNWD (ASPD-interacting motif/peptide) [AAT04]”, in experiment [3], the “inhibition effect on ASPD apoptotic activity compared with AAT01” value is listed as “equal to or more than that of the AAT01”.

As for “HFNWDW (ASPD-interacting motif/peptide) [AAT05]”, the “inhibition effect on ASPD apoptotic activity compared with AAT01” value in experiment [3] was “equal to or more than that of the AAT01”.
